{
  "source": "patent US20250051340A1",
  "about": "“TRIAZOLONE DERIVATIVE SALT AS NEUTROPHIL ELASTASE INHIBITOR” (CHIESI FARMACEUTICI S.P.A., priority 2021, published 2025)",
  "key": {"[1]": {"conditions": "rat, in vivo", "method": "(§1) In addition, the effects of different (2-{5-Cyano-2-[(R)-6-methoxycarbonyl-7-methyl-3-oxo-8-(3-trifluoromethyl-phenyl)-2,3,5,8-tetrahydro-[1,2,4]triazolo[4,3-a]pyrimidin-5-yl]-phenyl}-ethyl)-trimethyl-ammonium salts on lung function parameters were also assessed in rats by head-out plethysmography in order to compare the potential local adverse effects of each salt of (2-{5-Cyano-2-[(R)-6-methoxycarbonyl-7-methyl-3-oxo-8-(3-trifluoromethyl-phenyl)-2,3,5,8-tetrahydro-[1,2,4]triazolo[4,3-a]pyrimidin-5-yl]-phenyl}-ethyl)-trimethyl-ammonium.\n(§2) The duration of aerosol exposure was of 60 minutes. On the day of dosing, animals were placed into the plethysmograph tubes for at least 30 minutes prior to dosing and respiratory parameters: respiratory rate, tidal volume, and PenH were continuously recorded for at least 30 minutes pre-dose, 60 minutes during dosing (exposure) and 90 minutes post-exposure. The respiratory parameters were recorded every minute for a total period of 3 hours using the EMMS eDacq system (PLY231, EMMS, Bordon, United Kingdom)."}, "[2]": {"assay": "Solubility in water at RT", "assay_type": "physicochemical", "procedure": "The complete dissolution of the material was visually observed.\nA saturated solution of hemi-pamoate salt in water at RT was prepared, with a theoretical concentration of about 2 mg/ml. The solid in excess was filtered out and the content of the solution was quantified by LC/UV at different check points until 24 hours."}, "[3]": {"target": "T1, human neutrophil elastase (HNE) (Homo sapiens, UniProt P08246)", "T1 sequence (P08246 30-267)": "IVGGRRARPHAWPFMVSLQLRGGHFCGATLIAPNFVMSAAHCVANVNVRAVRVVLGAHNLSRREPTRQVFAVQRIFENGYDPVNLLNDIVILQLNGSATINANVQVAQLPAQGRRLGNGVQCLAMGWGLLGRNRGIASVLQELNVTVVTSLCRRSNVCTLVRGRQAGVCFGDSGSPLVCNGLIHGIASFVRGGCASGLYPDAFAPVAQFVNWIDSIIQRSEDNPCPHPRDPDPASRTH", "assay": "HNE-induced lung injury assay (BAL fluid haemoglobin content)", "assay_type": "in vivo, rat", "conditions": "i.t.; for % Inhibition of HNE-induced BAL fluid haemoglobin content at 3 μg/Kg / % Inhibition of HNE-induced BAL fluid haemoglobin content at 30 μg/Kg / % Inhibition of HNE-induced BAL fluid haemoglobin content at 300 μg/Kg: male Sprague Dawley rats, wet formulation, 3 h before HNE 100 U/rat, vs HNE-treated vehicle control", "procedure": "Then, one hour after the PBS or HNE administration animals were sacrificed and bronchoalveolar lavage (BAL) was performed in order to assess the HNE-induced lung injury measured as haemoglobin concentration. BAL fluid samples were centrifuged at 800 g for 15 min at 4° C. The supernatant was collected, and the pellet was re-suspended in 3 mL of distilled water. A standard curve with known volumes of lysated blood cells was made from a stem solution of lysated blood cells. 150 µL of standards and samples were transferred in duplicate to a 96-well plate and the OD measured at 412 nm. Percentage of compound efficacy (assessed as inhibition of HNE-induced haemoglobin content in BALF) was calculated following this formula: 100−[(mean of haemoglobin concentration of test compound treated rats exposed to HNE)−(mean of haemoglobin concentration of vehicle treated rats exposed to PBS)]/[(mean of haemoglobin concentration of vehicle treated rats exposed to HNE)−(mean of haemoglobin concentration of vehicle treated rats exposed to PBS)]×100."}, "[4]": {"assay": "Head-out plethysmography (HOP) assay, lung function parameters", "conditions": "male Wistar rats, single snout-only inhalation, dry powder, 0.7 and 7 mg/kg, during or after dosing", "method": "as §1, §2"}, "[5]": {"conditions": "thermodynamic from solid, read-out: Solubility"}},
  "note": "Read-outs that look alike come from different tables or passages of the source.",
  "data": [
    {"compound": "COC(=O)C1=C(C)N(c2cccc(C(F)(F)F)c2)c2n[nH]c(=O)n2[C@@H]1c1ccc(C#N)cc1CC[N+](C)(C)C.[Br-]", "note": "[Bromide, (2-{5-Cyano-2-[(R)-6-methoxycarbonyl-7-methyl-3-oxo-8-(3-trifluoromethyl-phenyl)-2,3,5,8-tetrahydro-[1,2,4]triazolo[4,3-a]pyrimidin-5-yl]-phenyl}-ethyl)-trimethyl-ammonium bromide]", "values": [
      {"measurement": "% of Reduction of tidal volume", "setting": "[1]; male, Wistar", "value": 38, "unit": "%"},
      {"measurement": "increase in PenH area compared to vehicle", "setting": "[1]; male, Wistar, 0.55 mg/kg", "value": "about 8 fold"},
      {"measurement": "increase in respiratory rate, maximum effect", "setting": "[1]; male, Wistar, 0.55 mg/kg", "value": 59, "unit": "%"},
      {"measurement": "increase in PenH area compared to vehicle", "setting": "[1]; male, Wistar, 5.5 mg/kg", "value": "~20", "unit": "fold"},
      {"measurement": "reduction in tidal volume, maximum", "setting": "[1]; male, Wistar, 5.5 mg/kg", "value": 38, "unit": "%"}
    ]},
    {"compound": "COC(=O)C1=C(C)N(c2cccc(C(F)(F)F)c2)c2n[nH]c(=O)n2[C@@H]1c1ccc(C#N)cc1CC[N+](C)(C)C", "note": "[Hemi-pamoate, (2-{5-Cyano-2-[(R)-6-methoxycarbonyl-7-methyl-3-oxo-8-(3-trifluoromethyl-phenyl)-2,3,5,8-tetrahydro-[1,2,4]triazolo[4,3-a]pyrimidin-5-yl]-phenyl}-ethyl)-trimethyl-ammonium hemi-pamoate]", "values": [
      {"measurement": "% of Reduction of tidal volume", "setting": "[1]", "value": "No variation of any lung function parameters"},
      {"measurement": "solubility", "setting": "[2]; [5]", "value": 0.17, "unit": "mg/mL"},
      {"measurement": "% Inhibition of HNE-induced BAL fluid haemoglobin content at 3 μg/Kg", "setting": "[3]", "value": 30, "unit": "%"},
      {"measurement": "% Inhibition of HNE-induced BAL fluid haemoglobin content at 30 μg/Kg", "setting": "[3]; 30 μg/kg", "value": 43, "unit": "%"},
      {"measurement": "% Inhibition of HNE-induced BAL fluid haemoglobin content at 300 μg/Kg", "setting": "[3]; 300 μg/kg", "value": 80, "unit": "%"},
      {"measurement": "inhibition of BAL fluid haemoglobin levels, dry powder, 30 μg/kg", "setting": "[3]; rats, dry powder formulation, 30 μg/kg, vs HNE-treated vehicle (lactose) control", "value": 4, "unit": "%"},
      {"measurement": "inhibition of BAL fluid haemoglobin levels, dry powder, 300 μg/kg", "setting": "[3]; rats, dry powder formulation, 300 μg/kg, vs HNE-treated vehicle (lactose) control", "value": 54, "unit": "%"},
      {"measurement": "inhibition of BAL fluid haemoglobin levels, dry powder, 600 μg/kg", "setting": "[3]; rats, dry powder formulation, 600 μg/kg, vs HNE-treated vehicle (lactose) control", "value": 60, "unit": "%"}
    ]},
    {"compound": "COC(=O)C1=C(C)N(c2cccc(C(F)(F)F)c2)c2n[nH]c(=O)n2[C@@H]1c1ccc(C#N)cc1CC[N+](C)(C)C.CS(=O)(=O)[O-]", "note": "[Methanesulfonate, (2-{5-Cyano-2-[(R)-6-methoxycarbonyl-7-methyl-3-oxo-8-(3-trifluoromethyl-Phenyl)-2,3,5,8-tetrahydro-[1,2,4]triazolo[4,3-a]Pyrimidin-5-yl]-phenyl}-ethyl)-trimethyl-ammonium methanesulfonate]", "values": [
      {"measurement": "% of Reduction of tidal volume", "setting": "[1]; male, Wistar", "value": "35-39%"},
      {"measurement": "increase of PenH compared to vehicle", "setting": "[1]; male, Wistar, 0.6 mg/kg", "value": "about 8 fold"},
      {"measurement": "increase of respiratory rate, peak effect", "setting": "[1]; male, Wistar, 0.6 mg/kg", "value": 32, "unit": "%"},
      {"measurement": "reduction of tidal volume, peak effect", "setting": "[1]; male, Wistar, 0.6 mg/kg", "value": 35, "unit": "%"},
      {"measurement": "increase of PenH compared to vehicle", "setting": "[1]; male, Wistar, 6 mg/kg", "value": "~16", "unit": "fold"},
      {"measurement": "increase of respiratory rate, peak effect", "setting": "[1]; male, Wistar, 6 mg/kg", "value": 54, "unit": "%"},
      {"measurement": "reduction of tidal volume, peak effect", "setting": "[1]; male, Wistar, 6 mg/kg", "value": 39, "unit": "%"},
      {"measurement": "solubility", "setting": "[2]; methanesulfonate", "value": ">200", "unit": "mg/mL"},
      {"measurement": "solubility", "setting": "[2]; [5]", "value": "> 200", "unit": "mg/mL"},
      {"measurement": "% Inhibition of HNE-induced BAL fluid haemoglobin content at 3 μg/Kg", "setting": "[3]", "value": 19, "unit": "%"},
      {"measurement": "% Inhibition of HNE-induced BAL fluid haemoglobin content at 30 μg/Kg", "setting": "[3]; 30 μg/kg", "value": 30, "unit": "%"},
      {"measurement": "% Inhibition of HNE-induced BAL fluid haemoglobin content at 300 μg/Kg", "setting": "[3]; 300 μg/kg", "value": 73, "unit": "%"}
    ]},
    {"compound": "(2-{5-Cyano-2-[(R)-6-methoxycarbonyl-7-methyl-3-oxo-8-(3-trifluoromethyl-phenyl)-2,3,5,8-tetrahydro-[1,2,4]triazolo[4,3-a]pyrimidin-5-yl]-phenyl}-ethyl)-trimethyl-ammonium hemi-pamoate", "values": [
      {"measurement": "effect on lung function parameters (respiratory rate, tidal volume, PenH)", "setting": "[4]", "value": "does not affect any lung function parameters"}
    ]}
  ]
}
